Data set [1] concerns the target T1, Estrogen receptor alpha (ER alpha) recombinant protein (ESR1) (Homo sapiens, UniProt P03372).
T1 sequence (P03372 1-595): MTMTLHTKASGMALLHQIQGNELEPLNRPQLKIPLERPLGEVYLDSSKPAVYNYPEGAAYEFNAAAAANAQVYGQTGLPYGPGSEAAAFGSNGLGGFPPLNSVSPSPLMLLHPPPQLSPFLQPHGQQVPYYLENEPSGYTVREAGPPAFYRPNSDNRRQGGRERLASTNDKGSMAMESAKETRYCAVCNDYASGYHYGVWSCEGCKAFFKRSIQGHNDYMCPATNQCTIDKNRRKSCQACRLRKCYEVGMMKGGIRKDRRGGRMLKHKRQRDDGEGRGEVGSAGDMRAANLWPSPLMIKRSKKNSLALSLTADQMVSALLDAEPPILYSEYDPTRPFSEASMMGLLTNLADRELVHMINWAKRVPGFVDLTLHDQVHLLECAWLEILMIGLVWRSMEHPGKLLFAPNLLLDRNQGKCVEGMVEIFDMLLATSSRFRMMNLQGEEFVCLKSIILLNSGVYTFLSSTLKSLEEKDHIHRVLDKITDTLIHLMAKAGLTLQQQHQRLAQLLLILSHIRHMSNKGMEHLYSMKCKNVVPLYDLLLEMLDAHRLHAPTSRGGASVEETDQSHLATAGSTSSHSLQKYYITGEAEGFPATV
As to the kind of experiment: Binding to the estrogen receptor by ultraviolet spectroscopy.

The target in the next data set is T2, ESR1 (Homo sapiens, UniProt P03372).
T2 construct: purchased Invitrogen-Thermofisher
T2 sequence (P03372 1-595): T1 sequence (P03372 1-595)
As to the kind of experiment: Competitive-binding ELISA of EST-HRP binding to the estrogen receptor. The note with it: for shift of the estradiol (EST-HRP) binding curve: maximal shift. (In general: In an ELISA, binding on a coated surface is turned into a signal by an enzyme label.)

In a further data set the test system is Human. Set-up: method as in PMID 30668390. The note with it: cited from earlier work.
Details of data set [2]: method as in PMID 26247812. The note with it: DPPC mem-brane model; cited from earlier work.
Data set [3] has as its system Human (prostate cancer cells). Set-up: method as in PMID 19705615. The note with it: cited from earlier work.
Another data set concerns Human HepG2 cells. Also on record: method as in PMID 30987128. The note with it: cited from earlier work.

Entries after “also recorded” stand apart in the source; their conditions may differ. Like-named read-outs stand apart in the source and are kept apart here.

As usually defined, the Kd is the constant that tells how readily two partners part at equilibrium. For `COc1cc(CNC(=O)CCCC/C=C/C(C)C)ccc1O` [Capsaicin, trans-8-methyl-N-vanillyl-6-nonenamide], the equilibrium dissociation constant (Kd) in data set [1] amounted to 0.9 µM; in data set [1] (read-out: Kd, ESR1 lower affinity site, UV spectroscopy), 10 µM. The “binding to the estrogen receptor (in words)” value was “bound to the estrogen receptor” in data set [1] (UV spectroscopy) and “bind directly to the estrogen receptor” in data set [1] (UV spectroscopy, listed as CAP). Moreover, the “competition with estradiol for binding to ESR1” value on ESR1 is “did not compete with estradiol for binding to ESR1”. Further, at ESR1 (listed as CAP), the “effect on estradiol (EST-HRP) binding to the estrogen receptor” value was “enhanced binding of estradiol to its receptor in a concentration-dependent manner; also recorded: increases binding of estradiol to its receptor”. Also, the “shift of the estradiol (EST-HRP) binding curve” value was “approximately a half of a log unit” on ESR1 and “half-log leftward shift” on ESR1 (listed as CAP). The “Cancer-Related Effects” value is listed as “>Inhibits cell proliferation” in the data set on Human and “>Induces apoptosis” in data set [3]. The “Downregulates or Inhibits” value is “>Cell cycle arrest in G0/G1 and G2/M phase >Suppresses ROS production” with Human; “> Lipogenesis > Inhibition of AKT/mTOR pathway” in the data set with Human HepG2 cells. The Upregulates result with Human was “>Increase in reduced glutathione and DPPH”; in data set [2], “>Increases membrane fluidity”; in data set [3], “>Cleavage of procaspase-3 to caspase-3 >Interaction with caspase-1 >TRPV1-mediated Ca+ influx”. Besides, the “Capsaicin Upregulates” value in the data set with Human HepG2 cells is reported as “>Activation of AMPK pathway”.

(Values after article PMC11856108, “Capsaicin (But Not Other Vanillins) Enhances Estrogen Binding to Its Receptor: Implications for Power Sports and Cancers” (Life, 2025).)
